Results: patent US8946225B2, “Derivatives of 2H pyridazin-3-ones, their preparation and their use as SCD-1 inhibitors” (Pierre Fabre Medicament, priority 2009, dated 2015)

Structure (SMILES): Cn1nccc(NCC(=O)N2CCN(C(=O)c3cc(F)ccc3C(F)(F)F)CC2)c1=O [Example 29, 4-{2-[4-(5-Fluoro-2-trifluoromethyl-benzoyl)-piperazin-1-yl]-2-oxo-ethylamino}-2-methyl-2H-pyridazin-3-one]
- melting point: 210 °C

Structure (SMILES): Cn1nccc(OCC(=O)N2CCC(Oc3ccc(F)cc3Cl)CC2)c1=O [Example 22, 4-{2-[4-(2-Chloro-4-fluoro-phenoxy)-piperidin-1-yl]-2-oxo-ethoxy}-2-methyl-2H-pyridazin-3-one]
- melting point: 135 °C

Structure (SMILES): Cn1ncc(OCC(=O)N2CCC(Oc3ccc(Cl)cc3Cl)CC2)cc1=O [Example 26, 5-{2-[4-(2,4-Dichloro-phenoxy)-piperidin-1-yl]-2-oxo-ethoxy}-2-methyl-2H-pyridazin-3-one]
- melting point: 140 °C

Structure (SMILES): Cn1nccc(NCC(=O)N2CC(COc3cc(C(F)(F)F)ccc3Cl)C2)c1=O [Example 33, 4-{2-[3-(2-Chloro-5-trifluoromethyl-phenoxymethyl)-azetidin-1-yl]-2-oxo-ethylamino}-2-methyl-2H-pyridazin-3-one]
- melting point: 174 °C

Structure (SMILES): Cn1nccc(OCC(=O)N2CCC(Oc3ccccc3OC(F)(F)F)CC2)c1=O [Example 21, 2-Methyl-4-{2-oxo-2-[4-(2-trifluoromethoxy-phenoxy)-piperidin-1-yl]-ethoxy}-2H-pyridazin-3-one]
- melting point: 126 °C

Structure (SMILES): CCCCn1nccc(NCC(=O)N2CCC(Oc3ccccc3Cl)CC2)c1=O [Example 50, 2-Butyl-4-{2-[4-(2-chloro-phenoxy)-piperidin-1-yl]-2-oxo-ethylamino}-2H-pyridazin-3-one]
- melting point: 82 °C

Structure (SMILES): CC(=O)c1ccc(F)cc1OC1CCN(C(=O)COc2ccnn(C)c2=O)CC1 [Example 23, 4-{2-[4-(2-Acetyl-5-fluoro-phenoxy)-piperidin-1-yl]-2-oxo-ethoxy}-2-methyl-2H-pyridazin-3-one]
- melting point: 192 °C

Structure (SMILES): Cn1nccc(NCC(=O)N2CCC(Oc3cc(F)ccc3F)CC2)c1=O [Example 13, 4-{2-[4-(2,5-Difluoro-phenoxy)-piperidin-1-yl]-2-oxo-ethylamino}-2-methyl-2H-pyridazin-3-one]
- melting point: 160 °C

Structure (SMILES): CC(C)n1nccc(NCC(=O)N2CCC(Oc3ccccc3C(F)(F)F)CC2)c1=O [Example 49, 2-Isopropyl-4-{2-oxo-2-[4-(2-trifluoromethyl-phenoxy)-piperidin-1-yl]-ethylamino}-2H-pyridazin-3-one]
- melting point: 180 °C

Structure (SMILES): C[C@H](Nc1ccnn(C)c1=O)C(=O)N1CCC(Oc2cc(C(F)(F)F)ccc2Cl)CC1 [Example 39, 4-{(S)-2-[4-(2-Chloro-5-trifluoromethyl-phenoxy)-piperidin-1-yl]-1-methyl-2-oxo-ethylamino}-2-methyl-2H-pyridazin-3-one]
- melting point: 70 °C

Structure (SMILES): Cn1nccc(NCC(=O)N2CCC(Oc3ccccc3[N+](=O)[O-])CC2)c1=O [Example 15, 2-Methyl-4-{2-[4-(2-nitro-phenoxy)-piperidin-1-yl]-2-oxo-ethylamino}-2H-pyridazin-3-one]
- melting point: 160 °C

Structure (SMILES): CN(Cc1ccc(Cl)c(Cl)c1)C1CCN(C(=O)CNc2ccnn(C)c2=O)CC1 [Example 28, 4-(2-{4-[(3,4-Dichloro-benzyl)-methyl-amino]-piperidin-1-yl}-2-oxo-ethylamino)-2-methyl-2H-pyridazin-3-one]
- melting point: 155 °C

Structure (SMILES): Cn1nccc(NCC(=O)N2CCN(C(=O)c3ccccc3C(F)(F)F)CC2)c1=O [Example 30, 2-Methyl-4-{2-oxo-2-[4-(2-trifluoromethyl-benzoyl)-piperazin-1-yl]-ethylamino}-2H-pyridazin-3-one]
- melting point: 170 °C

Structure (SMILES): Cn1ncc(NCC(=O)N2CCC(Oc3ccccc3C(F)(F)F)CC2)cc1=O [Example 19, 2-Methyl-5-{2-oxo-2-[4-(2-trifluoromethyl-phenoxy)-piperidin-1-yl]-ethylamino}-2H-pyridazin-3-one]
- melting point: 245 to 260 °C
